We go through 21 compounds from BindingDB's records for doi:10.3109/14756366.2010.543420 (Shanghai Institute of Material Medica, Chinese Academy of …, 2011).

The target of this assay is Beta-secretase 1 (Homo sapiens, UniProt P56817). As to the kind of experiment: Biochemical Assay. The conditions noted are these: pH 4.5; 37 °C. How it is done:
Briefly, the assay was carried out by incubation of the substrate peptide (5 μM), BACE1 enzyme (550 ng/mL) that was expressed and purified from insect expression system and varied concentrations of compounds at pH 4.5. After 1 h incubation at 37°C, stop buffer (3 M sodium acetate) was introduced into the reaction mixture to stop the reaction. Finally, the fluorescence intensity was measured on a TECAN GENios reader (Tecan) at room temperature with excitation at 420 nm and emission at 530 nm.

Beta-secretase 1, sequence (P56817 whole entry): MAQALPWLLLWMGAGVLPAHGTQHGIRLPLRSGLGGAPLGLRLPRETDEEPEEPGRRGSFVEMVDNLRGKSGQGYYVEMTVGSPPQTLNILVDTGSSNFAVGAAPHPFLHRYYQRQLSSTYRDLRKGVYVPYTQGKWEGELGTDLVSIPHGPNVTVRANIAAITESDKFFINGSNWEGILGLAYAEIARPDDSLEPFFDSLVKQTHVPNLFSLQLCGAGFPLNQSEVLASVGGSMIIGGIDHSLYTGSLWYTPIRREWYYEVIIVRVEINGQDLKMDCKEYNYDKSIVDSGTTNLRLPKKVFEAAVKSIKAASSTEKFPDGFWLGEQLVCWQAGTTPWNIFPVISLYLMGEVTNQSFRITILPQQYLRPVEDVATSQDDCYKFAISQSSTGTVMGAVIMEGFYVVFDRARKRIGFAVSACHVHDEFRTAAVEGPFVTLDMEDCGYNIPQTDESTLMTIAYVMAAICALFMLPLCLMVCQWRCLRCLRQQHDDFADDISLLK

The term IC50 denotes the concentration at which inhibition is half-maximal. Higher therefore signals weaker potency. `O=C(/C=C/c1ccccc1O)c1ccccc1O` had an IC50 above 60 µM.
For `O=C(/C=C/c1ccccc1O)c1cc(O)ccc1O` the value was 41.8 µM; for `C=CCOc1ccccc1/C=C/C(=O)c1ccc(O)cc1O`, above 60 µM; for `O=C(/C=C/c1ccccc1Cl)c1ccc(O)cc1O`, 11.4 µM.
In the case of `O=C(/C=C/c1ccccc1O)c1ccc(O)cc1O` [2,2'',4''-Trihydroxychalcone] it was 2.45 µM.
For `O=C(/C=C/c1ccc(O)cc1O)c1ccc(O)cc1O` [2,2',4,4'-tetrahydroxychalcone] the value was 0.62 µM.
For the compound `O=C(/C=C/c1ccccc1O)c1cccc(O)c1O` [(E)-1-(2,3-dihydroxyphenyl)-3-(2-hydroxyphenyl)-2-propen-1-one (12)], the midpoint of inhibition, the IC50, lay at 21.8 µM.
For `O=C(/C=C/c1cccc(O)c1O)c1ccc(O)cc1O` [(E)-1-(2,4-dihydroxyphenyl)-3-(2,3-dihydroxyphenyl)-2-propen-1-one (17)] the value was 0.27 µM; for `O=C(/C=C/c1cc(O)ccc1O)c1ccc(O)cc1O` [(E)-1-(2,4-dihydroxyphenyl)-3-(2,5-dihydroxyphenyl)-2-propen-1-one (19)], 1.94 µM; for `O=C(/C=C/c1c(O)cccc1O)c1ccc(O)cc1O` [(E)-1-(2,4-dihydroxyphenyl)-3-(2,6-dihydroxyphenyl)-2-propen-1-one (20)], 1.71 µM.
`COc1ccccc1/C=C/C(=O)c1ccc(O)cc1O` [(E)-1-(2,4-dihydroxyphenyl)-3-(2-methoxyphenyl)-2-propen-1-one (4)]: the IC50 came out at 2.63 µM.
For `O=C(/C=C/c1ccccc1[N+](=O)[O-])c1ccc(O)cc1O` [(E)-1-(2,4-dihydroxyphenyl)-3-(2-nitrophenyl)-2-propen-1-one (7)] the value was above 60 µM.
In the case of `O=C(/C=C/c1cc(O)cc(O)c1)c1ccc(O)cc1O` [(E)-1-(2,4-dihydroxyphenyl)-3-(3,5-dihydroxyphenyl)-2-propen-1-one (22)] it was 2.08 µM.
In the case of `O=C(/C=C/c1ccccc1O)c1c(O)cccc1O` [(E)-1-(2,6-dihydroxyphenyl)-3-(2-hydroxyphenyl)-2-propen-1-one (14)], it took 15.6 µM to reach half-maximal inhibition (IC50).
In the case of `O=C(/C=C/c1ccccc1O)c1ccc(O)c(O)c1` [(E)-1-(3,4-dihydroxyphenyl)-3-(2-hydroxyphenyl)-2-propen-1-one (15)] it was 11.8 µM.
In the case of `O=C(/C=C/c1ccccc1O)c1cc(O)cc(O)c1` [(E)-1-(3,5-dihydroxyphenyl)-3-(2-hydroxyphenyl)-2-propen-1-one (16)] it was 19.4 µM.
As to `O=C(/C=C/c1ccccc1O)c1cccc(O)c1` [(E)-1-(3-hydroxyphenyl)-3-(2-hydroxyphenyl)-2-propen-1-one (10)], the IC50 was determined as 30.4 µM. This IC50 lies about 1.6-fold higher than the previous one.
As to `O=C(/C=C/c1ccccc1O)c1ccc(O)cc1` [(E)-1-(4-hydroxyphenyl)-3-(2-hydroxyphenyl)-2-propen-1-one (11)], the concentration for half-maximal inhibition (IC50) was 58.1 µM.
In the case of `O=C(/C=C/c1cccc(O)c1)c1ccc(O)cc1O` [(E)-3,2'',4''-Trihydroxychalcone] it was 8.03 µM; in that of `O=C(/C=C/c1ccc(O)c(O)c1)c1ccc(O)cc1O` [(E)-3-(3,4-Dihydroxy-phenyl)-1-(2,4-dihydroxy-phenyl)-propenone], 2.37 µM.
`O=C(/C=C/c1ccccc1O)c1ccccc1` [Chalcone, 1] showed an IC50 above 60 µM.
